# What was measured:
# [1] = system: TGF-β cytokine released from Aspc1 cells; assay: ELISA of TGF-β cytokine concentration in Aspc1 culture media; assay type: cell-based; conditions: 50 ng/ml TGF-β plus peptide, 48 hours, FIG. 6
# Protocol: Specifically, the pancreatic cancer cell line Aspc1 was seeded in a 96-well plate at a density of 2×10^4 cells/well, cultured for one day, and then treated with 50 ng/ml of TGF-β or TGF-β plus inhibitor (candidate peptide and control peptide) for 48 hours, and then the concentrations of the TGF-β cytokine in the cancer cell culture media were analyzed by ELISA technique using a TGF-β detection ELISA kit. The concentration of the extracellularly released TGF-β cytokine was determined by measuring the absorbance with a multiplate reader, and the results were graphed.
# pSmad2/3 in Aspc1 cells = assay: Western blotting of pSmad2/3 expression level in Aspc1 cells; assay type: cell-based; conditions: TGF-β plus candidate peptide, 24 hours, FIG. 7
# Protocol: Specifically, in order to analyze the time-dependent expression of phospho-Smad2/3 in cells by Western blotting assay, each of pancreatic cancer cell lines Bxpc3 and Aspc1 was treated with TGF-β cytokine at 50 ng/ml, and then cells obtained at different times were lysed by adding a cell lysis buffer containing a protease inhibitor (Thermo Scientific), and then sampled, thus preparing samples for Western blotting. Each of the samples was electrophoresed on SDS-PAGE gel, transferred to nitrocellulose membranes, and then blocked using skim milk powder. […] Then, the membranes were visualized by chemiluminescence using a Western ECL substrate (Thermo Scientific), and the obtained luminescence images were analyzed with Chemidoc (BioRad).
# Specifically, each of the pancreatic cancer cell lines Aspc1, Bxpc3 and Panc1 was seeded in a 6-well plate at a density of 1×10^6 cells/well and cultured for one day. The next day, the cells were treated with TGF-β or TGF-β plus candidate peptide for 24 hours (control: 15% ACN—candidate peptide solvent, DMSO—P144 peptide solvent, P144), and the expression levels of pSmad2/3 and total Smad2/3 were analyzed by the Western blotting method described in Example 2.
Sequence,inhibition of extracellular release of TGF-β cytokine [1],inhibition of expression level of pSmad2/3 (pSmad2/3 in Aspc1 cells)
"FCLGPCPYIWCLDTF (P5) [candidate peptide derived from TGF-β, target TGFβRI/II]",directly inhibited the extracellular release of TGF-β cytokine,
"FCLGPCPYIWCLDTVLSL (P7) [candidate peptide derived from TGF-β, target TGFβRI/II]",directly inhibited the extracellular release of TGF-β cytokine,
"FCLGPCPYIWSLDTVLSL (P6) [candidate peptide derived from TGF-β, target TGFβRI/II]",directly inhibited the extracellular release of TGF-β cytokine,best ability to inhibit the expression level of pSmad2/3
"TIVYYVVIKPKVEQ (P14) [candidate peptide derived from TGF-β, target TGFβRII]",directly inhibited the extracellular release of TGF-β cytokine,
